Experimental data published in US20070292888A1, “Methods for Measuring Enzyme Activities in Cells, Blood, Tumors and Tissues” (GEN-PATH PHARMACEUTICALS, INC., priority 2004, published 2007).

Legend:
[1] = biological target: T1, glucose-6-phosphate dehydrogenase (G6PDH) (Mus musculus, UniProt Q00612); assay: Glucose-6-phosphate dehydrogenase activity in tissues of treated mice (fluorescence NADPH assay); type: in vivo; conditions: 11 days i.p. twice per day, various organs
T1 construct: from tissue; host or cells: mouse tumor, blood, brain, heart, kidney, liver, lung, spleen (crude lysates)
T1 sequence (Q00612 whole entry): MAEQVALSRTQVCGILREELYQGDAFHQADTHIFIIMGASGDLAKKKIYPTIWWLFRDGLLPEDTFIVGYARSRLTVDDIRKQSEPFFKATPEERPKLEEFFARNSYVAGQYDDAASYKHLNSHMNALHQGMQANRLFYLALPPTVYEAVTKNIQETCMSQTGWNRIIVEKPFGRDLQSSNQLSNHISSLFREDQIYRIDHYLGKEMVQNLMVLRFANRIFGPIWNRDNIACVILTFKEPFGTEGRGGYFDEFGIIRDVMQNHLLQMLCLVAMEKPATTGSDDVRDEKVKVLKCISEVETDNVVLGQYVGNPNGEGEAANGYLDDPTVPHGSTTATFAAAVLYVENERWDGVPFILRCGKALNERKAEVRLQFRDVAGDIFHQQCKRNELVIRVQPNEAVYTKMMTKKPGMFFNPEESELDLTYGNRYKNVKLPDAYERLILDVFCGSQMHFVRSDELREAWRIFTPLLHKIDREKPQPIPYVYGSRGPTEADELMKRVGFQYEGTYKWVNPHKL
Method: Blood samples from mice were taken (40 μl whole blood) serially or from mice sacrificed at the end of the experiment. Tissues, such as tumors (e.g. from implantation, xenograft, or arising spontaneously), brain, heart, kidney, liver, lung and spleen were taken and flash frozen in liquid nitrogen or on dry ice and stored in −80° C. until time of assay. Four volumes of cold lysis buffer (20 mM HEPES, pH 7.5, 1 mM EDTA, 0.2 g/l Triton X-100® and 0.2 g/L sodium deoxycholate, supplemented with 1 mM DTT and 1 mM PMSF just before use) were added to the blood, which was dissolved by vortexing. For blood that was frozen before coagulation, a clear lysate was obtained. […]
Each reaction was monitored for the appearance of NADH (for transketolase, alpha-ketoglutarate dehydrogenase, pyruvate dehydrogenase) or NADPH (for glucose-6-phosphate dehydrogenase) at room temperature in a fluorescent plate reader with excitation at 340 nm and emission at 470 nm in kinetic mode. The velocity was determined by the slope of the initial linear range of increasing fluorescence, expressed in fluorescent units (FU)/min. The protein concentration in the lysate was determined using Bradford assays (BioRad) with BSA as a standard. […]
We measured enzyme activity in an expanded panel of tissues from mice treated with N3PT or OxyT for 11 days i.p., twice per day. […]

[2] = biological target: T2, transketolase (TK) (Mus musculus, UniProt P40142); assay: Transketolase activity in blood, tumors and tissues of treated mice (fluorescence NADH assay); type: in vivo
T2 construct: from tissue; host or cells: mouse blood, spleen, tumor, kidney, lung, liver (crude lysates)
T2 sequence (P40142 1-623): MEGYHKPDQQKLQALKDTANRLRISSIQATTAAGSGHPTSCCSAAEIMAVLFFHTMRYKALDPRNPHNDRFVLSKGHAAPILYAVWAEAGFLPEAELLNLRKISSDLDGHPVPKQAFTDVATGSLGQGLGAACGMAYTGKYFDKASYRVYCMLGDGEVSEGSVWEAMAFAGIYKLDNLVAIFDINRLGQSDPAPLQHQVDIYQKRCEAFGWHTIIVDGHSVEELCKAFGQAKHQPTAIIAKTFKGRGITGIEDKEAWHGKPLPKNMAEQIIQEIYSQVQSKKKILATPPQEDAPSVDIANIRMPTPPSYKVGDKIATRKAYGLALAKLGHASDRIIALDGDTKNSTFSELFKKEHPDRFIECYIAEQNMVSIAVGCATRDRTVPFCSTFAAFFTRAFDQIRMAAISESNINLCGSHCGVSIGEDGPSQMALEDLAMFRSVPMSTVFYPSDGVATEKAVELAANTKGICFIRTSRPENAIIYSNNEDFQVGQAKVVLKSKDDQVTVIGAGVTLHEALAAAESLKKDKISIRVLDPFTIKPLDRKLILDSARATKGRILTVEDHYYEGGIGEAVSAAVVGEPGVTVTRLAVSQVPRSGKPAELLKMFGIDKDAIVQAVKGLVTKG
Method: Blood samples from mice were taken (40 μl whole blood) serially or from mice sacrificed at the end of the experiment. Tissues, such as tumors (e.g. from implantation, xenograft, or arising spontaneously), brain, heart, kidney, liver, lung and spleen were taken and flash frozen in liquid nitrogen or on dry ice and stored in −80° C. until time of assay. Four volumes of cold lysis buffer (20 mM HEPES, pH 7.5, 1 mM EDTA, 0.2 g/l Triton X-100® and 0.2 g/L sodium deoxycholate, supplemented with 1 mM DTT and 1 mM PMSF just before use) were added to the blood, which was dissolved by vortexing. For blood that was frozen before coagulation, a clear lysate was obtained. If coagulation occurred, homogenization was used as described below for tissue. Tissues were suspended in lysis buffer in 10 ml round bottom tubes and homogenized with PowerGen 125® (Fisher Scientific) for four seconds at highest power while submerged in an ice-water bath. This step was repeated after a few seconds, as necessary. The lysate was used right away or else flash frozen and stored at −80° C. until assay time. Eighty microliters (80 μl) of lysate (containing 5 mg tissue/ml lysate for TK and kGDH, 0.5 mg/ml for G6PDH) were put directly in individual wells of a 96-well clear-bottomed assay plate. Twenty microliters (20 μl) of 5× reaction mix was added to initiate each enzymatic reaction.
Each reaction was monitored for the appearance of NADH (for transketolase, alpha-ketoglutarate dehydrogenase, pyruvate dehydrogenase) or NADPH (for glucose-6-phosphate dehydrogenase) at room temperature in a fluorescent plate reader with excitation at 340 nm and emission at 470 nm in kinetic mode. The velocity was determined by the slope of the initial linear range of increasing fluorescence, expressed in fluorescent units (FU)/min. The protein concentration in the lysate was determined using Bradford assays (BioRad) with BSA as a standard. The enzymatic velocity was normalized by the total protein concentration for inter-sample comparison. To obtain reliable results across samples, similar starting protein concentrations were prepared (within approximately 30%) so that the normalized velocity required only small adjustments. This was achieved by weighing the tissue and putting in lysis buffer so that the suspensions contained the same amount of tissue/ml lysis buffer for all samples.
For TK, 15 μl of 5× assay buffer containing final concentrations of 50 mM HEPES, 40 mM KCl, 2.5 mM MgCl2, 5 mM NaArsenate, 1 mM NAD, 2 unit/ml glyceraldehydes-3-phosphate dehydrogenase (GAPDH) was added to 80 μl of lysate. Reaction kinetics were monitored on a fluorescent plate reader to allow any possible background activity via GAPDH to burn out. Then 5 μl of substrate mix containing final concentrations of 0.5 mM ribose-5-phosphate and 0.5 mM xylulose-5-phosphate was added to initiate the reaction. The reaction kinetics were monitored using a fluorescent plate reader, and the slope of the initial linear range was recorded as the velocity of the reaction (FU/min). See FIG. 1 for the reaction scheme.
To investigate the amount of in vivo enzyme inhibition following treatment with an inhibitor, we administered a single dose of N3PT (100 mg/kg, intraperitoneally [i.p.]) and blood, spleen and brain samples were collected at various times from 0-120 hours after dosing. The enzymatic activities were determined as described in Example 1. TK activity was measured in blood and spleen. Because TK activity in the brain is below the detection limit of the assay, kGDH activity was measured in brain samples. Measurements were taken at various time intervals
We measured enzyme activity in an expanded panel of tissues from mice treated with N3PT or OxyT for 11 days i.p., twice per day. Samples were taken from tumors, blood, brain, heart, kidney, lung and spleen, and TK, kGDH and G6PDH activities were determined as described above.

Cc1ccc(C[n+]2csc(CCO)c2C)c(N)n1 [N3PT, 3-[(2-amino-6-methyl-3-pyridinyl)methyl]-5-(2-hydroxyethyl)-4-methyl thiazolium]
G6PDH enzymatic activity following treatment [1]: no significant decrease | percent inhibition of TK activity in tumors ([2]; 11 days i.p. twice per day, 100 mg/kg, compared to vehicle control): 70% | liver enzymatic (TK) activity ([2]; 11 days i.p. twice per day, liver): hardly affected | Inhibition of transketolase activity in the spleen ([2]; single dose 100 mg/kg i.p., 8-24 hours post-treatment): up to 35% | Transketolase inhibition at 1 hour post-treatment ([2]; single dose 100 mg/kg i.p., 1 hour post-treatment): detectable | Transketolase inhibition at the final sampling at 120 hours ([2]; single dose 100 mg/kg i.p., 120 hours (5 days)): still evident | inhibition of transketolase activity in the blood ([2]; single dose N3PT 100 mg/kg i.p., at the nadir (12 hours)): 80%
